Results taken from patent US20260091050A1, “ADVANTAGEOUS ANTI-HCV COMBINATION THERAPY” (Atea Pharmaceuticals, Inc., priority 2021, published 2026).
“And” between values parts separate entries of the source, which are not always exact repeats. Identical values can stand only once.

What was measured:
GT1, GT2, or GT3 HCV = experiment: 600 mg QD for 7 days in Child-Pugh A cirrhotic patients with GT1, GT2 or GT3 HCV (Part E); format: in vivo, human; settings: for Mean Max Reduction / Mean Reduction After 24 hours / HCV RNA < LOQ (15 IU/mL): 600 mg of Compound 1-A; for HCV RNA < LOQ (15 IU/mL): subjects/total
Procedure: Doses were administered as the Compound 1-A salt base. The free base Compound 1 equivalent is often given in parenthesis. […]
(§1) HCV-infected patients were treatment-naïve with HCV RNA ≥5 log 10 IU/mL. HCV RNA was quantified using COBAS® AmpliPrep TaqMAN® v2.0 with LLQ of 15 IU/mL. Plasma drug levels were measured using LC-MS/MS. […] Mean ages of enrolled subjects were 44, 39, and 56 years in the non-cirrhotic GT1b 600 mg dose cohort, non-cirrhotic GT3 cohort, and the cirrhotic cohort, respectively.

[1] = Heart and liver tissue levels of active triphosphate 4 hours after oral Compound 1-A, dog; format: in vivo; settings: 4 hours after single oral dose
Procedure: (§2) High levels of the active TP were measured in the liver of all species tested.

[2] = Heart and liver tissue levels of active triphosphate 4 hours after oral Compound 1-A, monkey; format: in vivo; settings: 4 hours after single oral dose
Procedure: as §2

[3] = Plasma levels of Compound 1 and metabolites after single oral dose of Compound 1-A, monkey; format: in vivo; settings: for Compound 1 Tmax: Monkey, plasma
[4] = Solubility in biorelevant test medias (water, SGF, FaSSIF, FeSSIF); settings: for Appearance: solubility test; for Descriptive term: solubility
[5] = Stability under refrigerator conditions (5 ± 3° C.) of Compound 1-A over 9 months; format: physicochemical
Procedure: (§3) Three conditions were tested: accelerated stability (40±2° C./[…]) over a 6-month time period, ambient stability (25±2° C./[…]) over a 9-month period, and stability under refrigerator conditions (5±3° C.) over a 9-month time period. The results for accelerated stability, ambient stability, and refrigerator conditions are shown in Table 23, Table 24, and Table 25, respectively.

[6] = Plasma levels of Compound 1 and metabolites after single oral dose of Compound 1-A, rat; format: in vivo; settings: 500 mg/kg single oral dose
[7] = Single ascending dose study of Compound 1-A in healthy volunteers (Part A); format: in vivo, human
Procedure: Compound 1-A was tested in a single ascending dose (SAD) study to measure its safety, tolerability, and pharmacokinetic in healthy subjects (Part A). Part A was a randomized, double-blind, placebo-controlled SAD study. Healthy subjects in Part A received a single dose of Compound 1-A or placebo in the fasting state. Subjects were confined to the clinic from Day −1 to Day 6.
Dosing in each cohort was staggered such that 2 subjects (1 active:1 placebo) were evaluated for 48 hours after dosing before the remainder of the cohort was dosed. Each cohort received Compound 1-A in ascending order. Dosing of sequential cohorts occurred based on review of available safety data (through Day 5) and plasma pharmacokinetic data (through 24 h) of the prior cohort.
As pharmacokinetic and safety data emerged from prior cohorts, doses evaluated in Cohorts 3a-4a were adjusted by increments no more than 100 mg.
Healthy volunteers in the Part A portion of the study were male and female subjects between the ages of 18 and 65. Active and placebo recipients were pooled within each Part A cohort to preserve the study blind.

GT3 HCV = experiment: 600 mg QD for 7 days in non-cirrhotic GT3 HCV-infected patients (Part D); format: in vivo, human
Procedure: Doses were administered as the Compound 1-A salt base. The free base Compound 1 equivalent is often given in parenthesis.
Part C was a randomized, double-blind, placebo-controlled MAD study divided into three cohorts. […] The dose escalation only proceeded following satisfactory review of the data.
as §1

[8] = Ambient stability (25 ± 2° C./60 ± 5% RH) of Compound 1-A over 9 months; format: physicochemical
Procedure: as §3

[9] = 600 mg of Compound 1-A, GT3, non-cirrhotic (n = 6)
[10] = 25 ± 2° C./60 ± 5% RH, 1st month
[11] = 25 ± 2° C./60 ± 5% RH, 3rd month
[12] = 25 ± 2° C./60 ± 5% RH, 6th month
[13] = 25 ± 2° C./60 ± 5% RH, 9th month

## CNc1nc(N)nc2c1ncn2[C@@H]1O[C@H](CO[P@@](=O)(N[C@@H](C)C(=O)OC(C)C)Oc2ccccc2)[C@@H](O)[C@@]1(C)F [Compound 1-A, isopropyl ((S)-(((2R,3R,4R,5R)-5-(2-amino-6-(methylamino)-9H-purin-9-yl)-4-fluoro-3-hydroxy-4-methyltetrahydrofuran-2-yl)methoxy) (phenoxy)phosphoryl)-L-alaninate hemisulfate]
GT1, GT2, or GT3 HCV; 600 mg QD for 7 days, CPA cirrhotic
  mean maximum HCV RNA reduction: 4.4 log10 IU/mL and 4.6 log10 IU/mL
GT1, GT2, or GT3 HCV; GT1, Child-Pugh A (n = 3)
  Mean Max Reduction: 4.2 log10 IU/mL
  Mean Reduction After 24 hours: 2.4 log10 IU/mL
  HCV RNA < LOQ (15 IU/mL): 1/3
GT1, GT2, or GT3 HCV; GT3, Child-Pugh A (n = 1)
  Mean Max Reduction: 4.8 log10 IU/mL
  Mean Reduction After 24 hours: 2.2 log10 IU/mL
  HCV RNA < LOQ (15 IU/mL): 0/1
GT1, GT2, or GT3 HCV; cirrhotic GT1, within the first 24 hours
  HCV RNA reduction: 2.4 log10
GT1, GT2, or GT3 HCV; cirrhotic GT3, within the first 24 hours
  HCV RNA reduction: 2.2 log10
[1]
  active TP (metabolite 1-6) level in heart: Relatively low levels
  active TP (metabolite 1-6) level in liver: High levels
[2]
  active TP (metabolite 1-6) level in heart: unquantifiable levels
  active TP (metabolite 1-6) level in liver: High levels
[3]; 30 mg/kg single oral dose
  Compound 1 Tmax: 30 to 120 min
[3]; 100 mg/kg single oral dose
  Compound 1 Tmax: 60 to 120 min
[3]; monkeys, high dose group
  vomiting (animals affected): ⅕
[4]; FaSSIF
  Appearance: Turbid
  Descriptive term: Slightly
[4]; FeSSIF
  Appearance: Turbid
  Descriptive term: Slightly
[4]; SGF
  Appearance: Turbid
  Descriptive term: Soluble
[4]; Water
  Appearance: Turbid
  Descriptive term: Soluble
[5]; 5 ± 3° C., 0 month
  Appearance: White
  Assay: 98.8%
  IR: correspond
  Related Substance 1 Any other single impurity: 0.01%
  Related Substance 1 Total Impurities: 0.01%
  Water: 0.45%
[5]; 5 ± 3° C., 1st month
  Appearance: White
  Assay: 101.1%
  Related Substance 1 Any other single impurity: 0.01%
  Related Substance 1 Total Impurities: 0.01%
  Water: 0.19%
[5]; 5 ± 3° C., 3rd month
  Appearance: White
  Assay: 100.2%
  IR: correspond
  Related Substance 1 Any other single impurity: 0.01%
  Related Substance 1 Impurity B: 0.01%
  Related Substance 1 Total Impurities: 0.03%
  Water: 0.32%
[5]; 5 ± 3° C., 6th month
  Appearance: White
  Assay: 98.6%
  IR: correspond
  Related Substance 1 Any other single impurity: 0.01%
  Related Substance 1 Total Impurities: 0.03%
  Water: 0.42%
[5]; 5 ± 3° C., 9th month
  Appearance: Off-white
  Assay: 101.4%
  IR: correspond
  Related Substance 1 Any other single impurity: 0.01%
  Related Substance 1 Total Impurities: 0.01%
  Water: 0.32%
[5]; after 9 months
  total impurities of related substance 1: 0.0100
  water content: 0.3200
[5]; refrigerator conditions
  Chemical stability (conclusion): very chemically stable
[6]
  Compound 1 AUC0-last: 60.9 ng·h/mL
  Compound 1 Cmax: 70.5 ng/mL
  Compound 1 Tmax: 15 min
[7]
  intensity of adverse effects: mild to moderate
[7]; healthy subjects, single dose
  serious adverse events: No serious adverse events
GT3 HCV; 600 mg QD for 7 days, non-cirrhotic GT3
  mean maximum HCV RNA reduction: 4.6 log10 IU/mL and 4.5 log10 IU/mL
GT3 HCV; [9]
  Mean Max Reduction: 4.5 log10 IU/mL
  Mean Reduction After 24 hours: 2.4 log10 IU/mL
GT3 HCV; 600 mg of Compound 1-A, GT3, non-cirrhotic (n = 6), subjects/total
  HCV RNA < LOQ (15 IU/mL): 1/6
GT3 HCV; after the first dose of 600 mg, non-cirrhotic GT3
  mean HCV RNA reduction: 2.4 log10 IU/mL
[8]; 25 ± 2° C./60 ± 5% RH, 0 month
  Appearance: White
  Assay: 98.8%
  IR: correspond
  Related Substance 1 Any other single impurity: 0.01%
  Related Substance 1 Total Impurities: 0.01%
  Water: 0.45%
[8]; [10]
  Appearance: White
  Assay: 101.1%
  Related Substance 1 Any other single impurity: 0.01%
  Related Substance 1 Total Impurities: 0.02%
  Water: 0.19%
[8]; [11]
  Appearance: White
  Assay: 99.6%
  IR: correspond
  Related Substance 1 Any other single impurity: 0.03%
  Related Substance 1 Impurity B: 0.03%
  Related Substance 1 Impurity F: 0.02%
  Related Substance 1 Total Impurities: 0.11%
  Water: 0.29%
[8]; [12]
  Appearance: White solid
  Assay: 99.7%
  IR: correspond
  Related Substance 1 Any other single impurity: 0.02%
  Related Substance 1 Impurity F: 0.01%
  Related Substance 1 Total Impurities: 0.05%
  Water: 0.46%
[8]; [13]
  Appearance: Off-white
  Assay: 100.9%
  IR: correspond
  Related Substance 1 Any other single impurity: 0.02%
  Related Substance 1 Total Impurities: 0.02%
  Water: 0.20%
[8]; after 9 months
  percentage of water: 0.2000
  total related substance 1 impurities: 0.02%
